Test results taken from paper PMC12396409, “Screening and hit evaluation of a microbial metabolite library against the pathogenic Plasmodium falciparum and Toxoplasma gondii parasites” (International Journal for Parasitology: Drugs and Drug …, 2025).
Where two headings read alike, the source gives them in different places.

Columns and labels:
[1] = test system: P. falciparum 3D7 parasites; assay: P. falciparum growth inhibition assay, 2-cycle (120 h treatment), delayed-death screen and dose-response; assay type: cell-based, Plasmodium falciparum; conditions: for activity at 2 µg/mL: Plasmodium falciparum, 3D7, 120 h
[2] = test system: P. falciparum 3D7 parasites; assay: P. falciparum growth inhibition assay, 1-cycle (72 h treatment), SYBR DNA staining (library screen at 2 μg/mL and dose-response); assay type: cell-based, Plasmodium falciparum; conditions: for activity at 2 µg/mL: Plasmodium falciparum, 3D7, 72 h
[3] = test system: T. gondii RH strain (RH-Tub-eYFP) tachyzoites; assay: microbe, parasite or virus in culture; assay type: cell-based, Toxoplasma gondii; conditions: 72 h; for percent parasite growth at 2 µg/mL: Toxoplasma gondii
[4] = P. falciparum, 120 h, screen at 2 μg/mL, replicate 1
[5] = P. falciparum, 120 h, screen at 2 μg/mL, replicate 2
[6] = P. falciparum, 72 h, screen at 2 μg/mL, replicate 1
[7] = P. falciparum, 72 h, screen at 2 μg/mL, replicate 2
[8] = T. gondii, screen at 2 μg/mL, replicate 1
[9] = T. gondii, screen at 2 μg/mL, replicate 2

| SMILES | Pf_120h_%Growth_Rep1 [1, 4] [%] | Pf_120h_%Growth_Rep2 [1, 5] [%] | Pf_72h_%Growth_Rep1 [2, 6] [%] | Pf_72h_%Growth_Rep2 [2, 7] [%] | Tg_72h_%Growth_Rep1 [3, 8] [%] | Tg_72h_%Growth_Rep2 [3, 9] [%] | further results |
| --- | --- | --- | --- | --- | --- | --- | --- |
| CCC(=O)[C@@H](C)[C@@H](O)[C@H](C)C[C@@H](C)[C@H]1OC(=O)C[C@@]2(O)CC=C(C)[C@H](O2)/C(C)=C/CCC[C@@H](O[C@H]2C[C@@H](O)[C@H](O)[C@@H](C)O2)/C=C/[C@H](C)C[C@H]1C [Venturicidin B] | 23.65 | 5.91 | 25.34 | 5.57 | 0.31 | 1.90 | – |
| CCO[C@@H]1[C@@H](OC)[C@H](C)O[C@@H](O[C@H]2C[C@H]3[C@@H]4C=C5C(=O)[C@H](C)[C@@H](O)CCC[C@H](CC)OC(=O)C[C@H]5[C@@H]4C=C(C)[C@@H]3C2)[C@@H]1OC [spinosyn L 17-pseudoaglycone, 3'-Ethoxy-] | – | – | – | – | – | – | Pf_120h_%Growth_Rep1 ([1]; P. falciparum, 120 h, parasite screen 2 μg/mL, % growth, replicate 1): 6.02%; Pf_120h_%Growth_Rep2 ([1]; P. falciparum, 120 h, parasite screen 2 μg/mL, % growth, replicate 2): 1.27%; Pf_72h_%Growth_Rep1 ([2]; P. falciparum, 72 h, parasite screen 2 μg/mL, % growth, replicate 1): 17.82%; Pf_72h_%Growth_Rep2 ([2]; P. falciparum, 72 h, parasite screen 2 μg/mL, % growth, replicate 2): 8.15%; Tg_72h_%Growth_Rep1 ([3]; T. gondii, parasite screen 2 μg/mL, % growth, replicate 1): 97.87%; Tg_72h_%Growth_Rep2 ([3]; T. gondii, parasite screen 2 μg/mL, % growth, replicate 2): 88.47% |
| CC1(C)CCC[C@]2(C)[C@@H](CO)C(CO)=CC[C@@H]12 [Drimendiol] | – | – | – | – | – | – | Pf_120h_%Growth_Rep1 ([1]; library screen at 2 μg/mL, 120 h, % growth, replicate 1): 96.59%; Pf_120h_%Growth_Rep2 ([1]; library screen at 2 μg/mL, 120 h, % growth, replicate 2): 92.13%; Pf_72h_%Growth_Rep1 ([2]; library screen at 2 μg/mL, 72 h, % growth, replicate 1): 88.42%; Pf_72h_%Growth_Rep2 ([2]; library screen at 2 μg/mL, 72 h, % growth, replicate 2): 85.66%; Tg_72h_%Growth_Rep1 ([3]; library screen at 2 μg/mL, % growth, replicate 1): 182.34%; Tg_72h_%Growth_Rep2 ([3]; library screen at 2 μg/mL, % growth, replicate 2): 100.93% |
| CN1C(=O)c2ccccc2NC(=O)[C@]12O[C@@H]2c1ccccc1 [Cyclopenin] | 83.48 | 80.30 | 83.83 | 77.00 | 136.91 | 103.54 | – |
| CC1=C\[C@@H](O)CC(=O)Cc2nc(co2)C(=O)N2CCC=C2C(=O)O[C@H](C(C)C)[C@H](C)/C=C/C(=O)NC\C=C\1 [BIA-O1131] | – | – | – | – | – | – | Pf_120h_%Growth_Rep1 ([1]; P. falciparum 3D7, 120 h, parasite screen at 2 μg/mL, % growth, replicate 1): 16.87%; Pf_120h_%Growth_Rep2 ([1]; P. falciparum 3D7, 120 h, parasite screen at 2 μg/mL, % growth, replicate 2): 26.94%; Pf_72h_%Growth_Rep1 ([2]; P. falciparum 3D7, 72 h, parasite screen at 2 μg/mL, % growth, replicate 1): 59.89%; Pf_72h_%Growth_Rep2 ([2]; P. falciparum 3D7, 72 h, parasite screen at 2 μg/mL, % growth, replicate 2): 79.42%; Tg_72h_%Growth_Rep1 ([3]; T. gondii, parasite screen at 2 μg/mL, % growth, replicate 1): 125.71%; Tg_72h_%Growth_Rep2 ([3]; T. gondii, parasite screen at 2 μg/mL, % growth, replicate 2): 88.67% |
| O=C(c1cc(Cl)c(Cl)[nH]1)c1c(O)cccc1O [Pyoluteorin] | – | – | – | – | – | – | activity at 2 µg/mL ([1]; P. falciparum, 120 h, parasite screen 2 μg/mL, % growth, replicate 1, read-out: Pf_120h_%Growth_Rep1): 21.2%; activity at 2 µg/mL ([1]; P. falciparum, 120 h, parasite screen 2 μg/mL, % growth, replicate 2, read-out: Pf_120h_%Growth_Rep2): 3.32%; activity at 2 µg/mL ([2]; P. falciparum, 72 h, parasite screen 2 μg/mL, % growth, replicate 1, read-out: Pf_72h_%Growth_Rep1): 12.8%; activity at 2 µg/mL ([2]; P. falciparum, 72 h, parasite screen 2 μg/mL, % growth, replicate 2, read-out: Pf_72h_%Growth_Rep2): 3.08%; percent parasite growth at 2 µg/mL ([3]; T. gondii, parasite screen 2 μg/mL, % growth, replicate 1, read-out: Tg_72h_%Growth_Rep1): -1.3%; percent parasite growth at 2 µg/mL ([3]; T. gondii, parasite screen 2 μg/mL, % growth, replicate 2, read-out: Tg_72h_%Growth_Rep2): -1.92% |
| CC(=O)O.CC(=O)O.CC[C@H](C)C[C@H](C)CCCCCCCCC(=O)N[C@H]1C[C@@H](O)[C@@H](NCCN)NC(=O)[C@@H]2[C@@H](O)CCN2C(=O)[C@H]([C@H](O)CCN)NC(=O)[C@H]([C@H](O)[C@@H](O)c2ccc(O)cc2)NC(=O)[C@@H]2C[C@@H](O)CN2C(=O)[C@H]([C@@H](C)O)NC1=O [Caspofungin acetate] | 148.27 | 78.66 | 37.83 | 84.89 | 95.80 | 93.96 | – |
| O=C(O)c1cccc2nc3ccccc3nc12 [Tubermycin B] | 88.83 | 26.83 | 44.49 | 34.95 | 87.24 | 96.39 | – |
